Assay: recombinant UMI read abundance after kanamycin selection (control-corrected) (log10(CPM+1)); higher = more efficient recombination; extreme values may be limits of the assay; sequences stand for … in AGTGCAGAGAAAATCGGCCAGTTTTCTCTGCCTGCAGTCCGCATGCCGTGGGACCCCTTGGGTTCTAACCTGTTGCCTAGATTTATGCAGCGGACTGCCTTTCTCCCAAAGTGATAAACCGG…AGGTTGGTTTCACT; site = the 11-nt donor
Method in brief: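 Values, expressed as log10(CPM+1), derive from recombinant UMI counts converted to CPM, averaged across replicates and scaled by control-derived factors. Plating was with IPTG (0.07 mM) plus kanamycin or unselected, two replicates each. The screen pooled donor and donor-binding-loop pairs for the IS621 bridge recombinase in Escherichia coli.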
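Note: IS621 bridge recombinase in Escherichia coli cells against a fixed T5 target plasmid.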

Sequence	recombinant UMI read abundance (log10)
GTACGTACATGGACCGGTTTTCCCGGTAATCCGTATTTGAC (site GTAGGTACTGT)	0.0679
GTACGTACATGGACCGGTTTTCCCGGTAATCCGTATTTGAC (site GTATGTACTGT)	0.00913
GTACTCGCATGGACCGGTTTTCCCGGTAATCCGTATTTGCG (site GTAATCGCTCG)	0.0162
GTACTCGCATGGACCGGTTTTCCCGGTAATCCGTATTTGCG (site GTACTCGCTCG)	0.0142
GTACTCGCATGGACCGGTTTTCCCGGTAATCCGTATTTGCG (site GTAGTCGCTCG)	0.00832
GTACTCGCATGGACCGGTTTTCCCGGTAATCCGTATTTGCG (site GTATTCGCTCG)	0.00972
GTAGACGCATGGACCGGTTTTCCCGGTAATCCGTATTTGCG (site GTAGACGCTCG)	2.33
GTAGACGCATGGACCGGTTTTCCCGGTAATCCGTATTTGCG (site GTAGCCGCTCG)	0.0374
GTAGACGCATGGACCGGTTTTCCCGGTAATCCGTATTTGCG (site GTAGGCGCTCG)	1.39
GTAGACGCATGGACCGGTTTTCCCGGTAATCCGTATTTGCG (site GTAGTCGCTCG)	0.182
GTAGATTCATGGACCGGTTTTCCCGGTAATCCGTATTTGTT (site GAAGATTCTAA)	0.559
GTAGATTCATGGACCGGTTTTCCCGGTAATCCGTATTTGTT (site GCAGATTCTAA)	1.63
GTAGATTCATGGACCGGTTTTCCCGGTAATCCGTATTTGTT (site GGAGATTCTAA)	0.98
GTAGATTCATGGACCGGTTTTCCCGGTAATCCGTATTTGTT (site GTAGATTCTAA)	3.02
GTAGCTGCATGGACCGGTTTTCCCGGTAATCCGTATTTGTG (site ATAGCTGCTCA)	0.436
GTAGCTGCATGGACCGGTTTTCCCGGTAATCCGTATTTGTG (site CTAGCTGCTCA)	0.54

Sequence	recombinant UMI read abundance (log10)
GTAGCTGCATGGACCGGTTTTCCCGGTAATCCGTATTTGTG (site GTAGCTGCTCA)	1.06
GTAGCTGCATGGACCGGTTTTCCCGGTAATCCGTATTTGTG (site TTAGCTGCTCA)	0.0482
GTAGGATCATGGACCGGTTTTCCCGGTAATCCGTATTTGAC (site CTAGTATCTGT)	0.851
GTAGGATCATGGACCGGTTTTCCCGGTAATCCGTATTTGAC (site GTAGGATCTGT)	3.19
GTAGGCGCATGGACCGGTTTTCCCGGTAATCCGTATTTGAC (site GTAGGCGCTGT)	1.9
GTAGGCGCATGGACCGGTTTTCCCGGTAATCCGTATTTGCG (site GTAGACGCTCG)	2.78
GTAGGCGCATGGACCGGTTTTCCCGGTAATCCGTATTTGCG (site GTAGCCGCTCG)	0
GTAGGCGCATGGACCGGTTTTCCCGGTAATCCGTATTTGCG (site GTAGGCGCTCG)	1.47
GTAGGCGCATGGACCGGTTTTCCCGGTAATCCGTATTTGCG (site GTAGTCGCTCG)	0.407
GTAGGGTCATGGACCGGTTTTCCCGGTAATCCGTATTTGTT (site GTAGGGTCTAA)	2.38
GTAGGTACATGGACCGGTTTTCCCGGTAATCCGTATTTGGC (site GTAGGTACTGA)	1.79
GTAGGTACATGGACCGGTTTTCCCGGTAATCCGTATTTGGC (site GTAGGTACTGC)	2.38
GTAGGTACATGGACCGGTTTTCCCGGTAATCCGTATTTGGC (site GTAGGTACTGG)	0.159
GTAGGTACATGGACCGGTTTTCCCGGTAATCCGTATTTGGC (site GTAGGTACTGT)	1.53
GTAGGTACATGGACCGGTTTTCCCGGTAATCCGTATTTGTC (site GTAGGTACTGA)	1.99
GTAGGTACATGGACCGGTTTTCCCGGTAATCCGTATTTGTC (site GTAGGTACTGC)	0

From the supplement of paper PMC11208160
